The source made the active and inactive calls.
Legend:
[1] = HEK293T cytotoxicity, dose response, cytotoxicity control for miR-122 modulator project, cell-based, inhibitor set, cherry-pick, set 2 (AID 720697); format: functional
[2] = inhibitors of intracellular T. cruzi replication, confirmation, NIH3T3 host cells, beta-gal luminescence (AID 2044); format: functional, cell-based;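 also: intracellular parasites grown in NIH/3T3 mouse fibroblasts as host cells; luminescent beta-galactosidase reporter signal from transgenic T. cruzi replicating inside host cells; inhibitors lower the luminescence signal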
[3] = Counterscreen for activators of the function of SWI/SNF related, matrix associated, actin dependent regulator of chromatin, subfamily a, member 2 (SMARCA2, BRM): Luminescence-based cell-based high throughput dose response assay to identify non-selective compounds using the VP16 reporter assay.; format: functional
[4] = target: SWI/SNF-related matrix-associated actin-dependent regulator of chromatin subfamily A member 2 (Homo sapiens, UniProt P51531); test: Luminescence-based cell-based high throughput dose response assay to identify activators of the function of SWI/SNF related, matrix associated, actin dependent regulator of chromatin, subfamily a, member 2 (SMARCA2, BRM).; format: functional
[5] = cytotoxicity toward NIH3T3 fibroblasts, dose response, counter-screen, cell-based, ATP luminescence, mouse fibroblasts (AID 2010); format: functional;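 also: cells exposed to compound for about 90 hours before reading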
[6] = target: T1, Fructose-bisphosphate aldolase (Mycobacterium tuberculosis, UniProt P9WQA3); test: Fluorescence-based biochemical high throughput dose response assay for inhibitors of the fructose-bisphosphate aldolase (FBA) of M. tuberculosis.; format: functional
T1 sequence (P9WQA3 whole entry): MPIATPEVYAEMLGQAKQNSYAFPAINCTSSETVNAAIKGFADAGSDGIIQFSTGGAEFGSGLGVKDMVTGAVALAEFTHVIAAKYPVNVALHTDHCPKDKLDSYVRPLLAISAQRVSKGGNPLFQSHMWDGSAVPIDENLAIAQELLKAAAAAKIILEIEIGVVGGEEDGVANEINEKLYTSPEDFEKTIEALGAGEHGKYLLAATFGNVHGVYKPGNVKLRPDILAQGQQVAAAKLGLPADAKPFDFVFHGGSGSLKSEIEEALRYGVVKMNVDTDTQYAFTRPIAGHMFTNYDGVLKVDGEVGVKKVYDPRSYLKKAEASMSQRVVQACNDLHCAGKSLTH

[7] = human group III sPLA2 inhibitors, dose response, biochemical, QFRET, IC50 (AID 743457);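 also: green fluorescence rise as the enzyme cleaves BODIPY PC-A2 in liposomes; potency for inhibition of the enzyme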
[8] = cytotoxicity in HEK-293T cells, dose response, cytotoxicity control for TCR NF-kB inhibitor project, luminescence, T-cell screen hits (AID 489026); format: functional, cell-based;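 also: cells exposed to compound about 14 hours before the viability readout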
[9] = cytotoxicity toward DRD oncogenic fibroblasts, dose response, cell-based, non-viral oncogenic, luminescence (AID 1934); format: functional; details: Homo sapiens
[10] = inhibitors of firefly luciferase expression or activity, dose response, H4 neuroglioma cells, luminescence (AID 1990); format: functional, cell-based
[11] = Luminescence Cell-Based Dose Response HTS to Identify Inhibitors of 5'UTR Stem-Loop Driven Prion Protein mRNA Translation in H4 Neuroglioblastoma Cells. [Related pubchem assays: 1827 (Project Summary), 1813 (Primary HTS)]; format: functional
[12] = system: BJ; test: cytotoxicity toward BJ-TERT fibroblasts, dose response, cell-based, RAS-independent, luminescence (AID 1933); format: functional; details: Homo sapiens
[13] = system: Vero; test: cells; format: functional; details: Chlorocebus sabaeus
[14] = system: BJ; test: cytotoxicity toward BJ-TERT-LT-ST fibroblasts, dose response, cell-based, RAS-independent, luminescence (AID 1935); format: functional; details: Homo sapiens;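 also: BJ fibroblasts immortalized with TERT plus LT and ST oncogenes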
[15] = system: BJ; test: cells; format: functional, cell-based; details: Homo sapiens
[16] = target: T2, Sentrin-specific protease 7 (Homo sapiens, UniProt Q9BQF6); format: functional;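 also: Luminescence-based dose-response confirmation of ultra-high-throughput screening hits, measuring inhibition of SENP7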
T2 sequence (Q9BQF6 whole entry): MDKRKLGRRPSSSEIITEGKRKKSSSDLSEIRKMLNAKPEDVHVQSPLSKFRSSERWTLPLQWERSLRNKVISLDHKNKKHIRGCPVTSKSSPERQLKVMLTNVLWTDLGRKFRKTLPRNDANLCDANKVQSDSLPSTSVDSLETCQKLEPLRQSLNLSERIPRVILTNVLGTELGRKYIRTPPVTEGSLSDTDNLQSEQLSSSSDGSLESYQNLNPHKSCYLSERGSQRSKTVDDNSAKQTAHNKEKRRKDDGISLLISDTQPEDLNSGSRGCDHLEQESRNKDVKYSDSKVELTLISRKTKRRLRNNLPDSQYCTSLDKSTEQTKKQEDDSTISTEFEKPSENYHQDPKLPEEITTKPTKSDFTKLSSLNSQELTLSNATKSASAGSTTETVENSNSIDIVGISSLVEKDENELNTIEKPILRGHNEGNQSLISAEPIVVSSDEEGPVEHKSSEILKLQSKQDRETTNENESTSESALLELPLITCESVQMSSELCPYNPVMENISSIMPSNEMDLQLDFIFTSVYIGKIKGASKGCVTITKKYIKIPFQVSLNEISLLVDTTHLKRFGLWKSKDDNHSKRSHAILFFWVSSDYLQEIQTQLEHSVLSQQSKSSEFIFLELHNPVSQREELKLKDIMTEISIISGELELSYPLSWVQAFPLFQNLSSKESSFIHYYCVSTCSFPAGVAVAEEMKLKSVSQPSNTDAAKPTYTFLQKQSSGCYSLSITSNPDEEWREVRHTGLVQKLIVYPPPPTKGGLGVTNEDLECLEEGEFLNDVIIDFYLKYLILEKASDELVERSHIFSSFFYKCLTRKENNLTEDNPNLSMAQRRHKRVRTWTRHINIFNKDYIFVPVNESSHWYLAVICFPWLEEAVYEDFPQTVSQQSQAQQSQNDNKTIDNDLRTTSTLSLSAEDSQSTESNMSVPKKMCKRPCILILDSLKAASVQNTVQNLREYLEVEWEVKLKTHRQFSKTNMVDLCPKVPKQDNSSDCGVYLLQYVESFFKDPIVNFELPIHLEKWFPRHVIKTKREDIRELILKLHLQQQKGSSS

[17] = target: T3, Caspase-3 (Homo sapiens, UniProt P42574); format: functional;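 also: Dose-response selectivity test against caspase-3 for candidate inhibitors of sentrin-specific proteases (SENPs)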
T3 sequence (P42574 whole entry): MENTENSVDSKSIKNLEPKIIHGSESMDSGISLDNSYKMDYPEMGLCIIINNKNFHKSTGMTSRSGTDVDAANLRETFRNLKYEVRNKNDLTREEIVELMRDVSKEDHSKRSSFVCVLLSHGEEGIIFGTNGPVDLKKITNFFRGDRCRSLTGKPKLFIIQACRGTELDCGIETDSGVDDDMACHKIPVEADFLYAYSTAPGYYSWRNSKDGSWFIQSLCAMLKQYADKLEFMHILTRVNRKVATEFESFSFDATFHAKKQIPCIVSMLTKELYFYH

[18] = target: T4, Sentrin-specific protease 8 (Homo sapiens, UniProt Q96LD8); format: functional;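 also: luminescence read-out of SENP8 inhibition, dose-response confirmation following an ultra-high-throughput screen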
T4 sequence (Q96LD8 whole entry): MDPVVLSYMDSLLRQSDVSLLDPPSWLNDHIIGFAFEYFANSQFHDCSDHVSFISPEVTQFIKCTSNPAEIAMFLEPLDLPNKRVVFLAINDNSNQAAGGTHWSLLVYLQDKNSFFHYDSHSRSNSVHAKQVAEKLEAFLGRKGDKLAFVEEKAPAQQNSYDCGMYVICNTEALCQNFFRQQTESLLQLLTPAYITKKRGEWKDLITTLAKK

[19] = target: T5, Sentrin-specific protease 6 (Homo sapiens, UniProt Q9GZR1); format: functional;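 also: Luminescence-based dose-response confirmatory assay of SENP6 inhibition, following up an ultra-high-throughput screen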
T5 sequence (Q9GZR1 whole entry): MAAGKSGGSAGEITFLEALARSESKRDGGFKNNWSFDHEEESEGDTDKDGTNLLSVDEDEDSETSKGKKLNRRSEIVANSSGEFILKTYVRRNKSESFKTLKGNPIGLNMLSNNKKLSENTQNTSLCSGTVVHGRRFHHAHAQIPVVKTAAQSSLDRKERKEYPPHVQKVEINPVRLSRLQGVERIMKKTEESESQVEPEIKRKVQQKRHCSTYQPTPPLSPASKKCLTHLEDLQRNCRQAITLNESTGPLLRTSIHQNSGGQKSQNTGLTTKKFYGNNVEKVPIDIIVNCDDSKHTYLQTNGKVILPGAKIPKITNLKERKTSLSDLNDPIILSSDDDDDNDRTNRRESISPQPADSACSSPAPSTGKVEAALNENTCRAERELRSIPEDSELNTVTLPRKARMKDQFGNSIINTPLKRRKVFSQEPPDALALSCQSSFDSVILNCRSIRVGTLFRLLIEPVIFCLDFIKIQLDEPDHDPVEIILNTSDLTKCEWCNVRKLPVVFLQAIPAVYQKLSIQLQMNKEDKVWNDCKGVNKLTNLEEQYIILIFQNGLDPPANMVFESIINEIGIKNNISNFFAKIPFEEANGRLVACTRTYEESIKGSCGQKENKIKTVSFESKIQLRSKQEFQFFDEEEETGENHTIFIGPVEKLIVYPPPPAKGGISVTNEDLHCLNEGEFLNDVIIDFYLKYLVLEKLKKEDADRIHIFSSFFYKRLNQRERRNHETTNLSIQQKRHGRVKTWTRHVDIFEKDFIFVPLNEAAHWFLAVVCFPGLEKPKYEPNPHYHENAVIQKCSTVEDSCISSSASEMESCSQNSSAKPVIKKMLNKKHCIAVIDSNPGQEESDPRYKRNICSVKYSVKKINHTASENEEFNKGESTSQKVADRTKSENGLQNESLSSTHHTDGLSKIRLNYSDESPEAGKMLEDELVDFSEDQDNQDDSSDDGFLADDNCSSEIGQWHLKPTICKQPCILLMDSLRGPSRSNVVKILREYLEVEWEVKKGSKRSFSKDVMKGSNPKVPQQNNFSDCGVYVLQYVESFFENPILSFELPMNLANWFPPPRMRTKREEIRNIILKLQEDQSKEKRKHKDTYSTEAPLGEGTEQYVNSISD

SWI/SNF-related matrix-associated actin-dependent regulator of chromatin subfamily A member 2, sequence (P51531 whole entry): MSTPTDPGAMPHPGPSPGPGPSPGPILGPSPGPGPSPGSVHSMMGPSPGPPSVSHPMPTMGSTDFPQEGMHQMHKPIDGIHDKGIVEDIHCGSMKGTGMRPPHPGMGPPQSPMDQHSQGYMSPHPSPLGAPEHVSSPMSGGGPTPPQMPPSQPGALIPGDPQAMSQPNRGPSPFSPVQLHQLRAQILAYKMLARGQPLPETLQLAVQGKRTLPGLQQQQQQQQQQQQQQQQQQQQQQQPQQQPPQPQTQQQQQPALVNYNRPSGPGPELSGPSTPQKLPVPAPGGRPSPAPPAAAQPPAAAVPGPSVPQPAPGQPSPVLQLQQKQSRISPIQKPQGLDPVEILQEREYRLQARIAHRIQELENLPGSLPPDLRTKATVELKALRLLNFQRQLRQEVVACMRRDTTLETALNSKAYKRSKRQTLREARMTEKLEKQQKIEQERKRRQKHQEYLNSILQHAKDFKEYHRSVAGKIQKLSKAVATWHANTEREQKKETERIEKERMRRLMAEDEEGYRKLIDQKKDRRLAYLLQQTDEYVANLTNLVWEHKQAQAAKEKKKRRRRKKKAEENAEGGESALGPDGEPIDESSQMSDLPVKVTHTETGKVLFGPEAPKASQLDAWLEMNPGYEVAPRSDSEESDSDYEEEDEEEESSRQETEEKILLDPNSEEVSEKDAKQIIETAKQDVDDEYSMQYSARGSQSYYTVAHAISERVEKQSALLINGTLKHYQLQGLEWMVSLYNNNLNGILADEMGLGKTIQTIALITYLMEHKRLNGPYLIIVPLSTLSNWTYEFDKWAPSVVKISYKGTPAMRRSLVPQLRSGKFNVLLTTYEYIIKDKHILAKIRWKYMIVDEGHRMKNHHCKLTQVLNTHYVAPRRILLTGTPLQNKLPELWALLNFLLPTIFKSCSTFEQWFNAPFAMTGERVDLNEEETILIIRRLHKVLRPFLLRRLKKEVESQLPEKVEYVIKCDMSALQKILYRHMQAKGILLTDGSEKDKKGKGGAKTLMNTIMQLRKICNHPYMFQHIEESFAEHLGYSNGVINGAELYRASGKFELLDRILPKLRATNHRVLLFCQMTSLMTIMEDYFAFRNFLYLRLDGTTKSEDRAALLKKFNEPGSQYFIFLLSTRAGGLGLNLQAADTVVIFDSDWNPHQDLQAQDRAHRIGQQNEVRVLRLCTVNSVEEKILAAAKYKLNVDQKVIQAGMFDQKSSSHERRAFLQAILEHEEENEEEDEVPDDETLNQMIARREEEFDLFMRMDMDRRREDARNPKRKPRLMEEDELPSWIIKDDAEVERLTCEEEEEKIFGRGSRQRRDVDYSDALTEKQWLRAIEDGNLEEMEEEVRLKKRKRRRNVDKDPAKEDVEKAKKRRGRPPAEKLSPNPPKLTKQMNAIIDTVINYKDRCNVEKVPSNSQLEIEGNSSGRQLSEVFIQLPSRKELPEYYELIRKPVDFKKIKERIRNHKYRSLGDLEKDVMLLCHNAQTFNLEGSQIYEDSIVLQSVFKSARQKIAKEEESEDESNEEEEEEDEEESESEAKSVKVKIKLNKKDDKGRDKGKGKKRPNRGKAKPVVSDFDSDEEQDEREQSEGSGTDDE

**Q.** With `CC(C)NC(=O)N1[C@H](CO)[C@@H](c2ccccc2)[C@@H]1CN(C)C(=O)c1cccnc1` as the compound, how does the AC50 [1] read?
**A.** The AC50 was 0.538 µM (active).

**Q.** For `O=C(Oc1c(CN2CCOCC2)cc(Cl)c2cccnc12)c1ccccc1F`, which EC50 [2] is on record?
**A.** The EC50 was 1.65 µM (active).

**Q.** What about the EC50 [3] of the same compound?
**A.** The EC50 was > 91.2 µM (inactive).

**Q.** And the EC50 [4]?
**A.** Its EC50 is > 91.2 µM (inactive).

**Q.** And the EC50 [5]?
**A.** Its EC50 is 8.05 µM (active).

**Q.** With `CCS(=O)(=O)N1N=C(c2ccc(NS(C)(=O)=O)cc2)CC1c1ccccc1` (stereo unspecified) as the compound, how does the IC50 [6] read?
**A.** Its IC50 is > 0.37 µM (active).

**Q.** Which IC50 [7] does the source give for `O=C(NNc1nc(-c2ccccc2)cs1)c1ccco1` here?
**A.** The IC50 was > 122 µM (inactive).

**Q.** With `O=C(CNC(=O)c1ccco1)N=Nc1c(O)n(CCc2ccccc2)c2ccccc12` as the compound, how does the IC50 [8] read?
**A.** The IC50 was > 80 µM (inactive).

**Q.** What about the EC50 [9] of the same compound?
**A.** Its EC50 is 2.05 µM (active).

**Q.** What about the EC50 [10] of the same compound?
**A.** Its EC50 is 12.2 µM (active).

**Q.** What about the EC50 [11] of the same compound?
**A.** The EC50 was > 120 µM (not active).

**Q.** And the EC50 [12]?
**A.** Its EC50 is 3.21 µM (active).

**Q.** What about the CC50 [13] of the same compound?
**A.** Its CC50 is 2.46 µM (active).

**Q.** What about the EC50 [14] of the same compound?
**A.** The EC50 was 1.45 µM (active).

**Q.** And the EC50 [15]?
**A.** The EC50 was 17.7 µM (active).

**Q.** With `COc1cc(C(=O)N/N=C/c2cccc(Oc3ccccc3)c2)ccc1O` as the compound, how does the CC50 [13] read?
**A.** The CC50 was > 25 µM (active).

**Q.** Which IC50 [16] does the source give for `COc1ccc(NC(=O)c2ccc(-c3ccccc3Cl)o2)cc1` here?
**A.** The IC50 was 4.54 µM (active).

**Q.** And the IC50 [17]?
**A.** The IC50 was 16.2 µM (active).

**Q.** And the IC50 [18]?
**A.** The IC50 was > 100 µM (inactive).

**Q.** And the IC50 [19]?
**A.** Its IC50 is 4.21 µM (active).

**Q.** Which results are given for `O=C(Nc1ccccc1)N1CC=C(c2ccc(F)cc2)CC1`?
**A.** IC50 [16]: 14.9 µM (active); IC50 [17]: 34.3 µM (active); IC50 [18]: 86.8 µM (active); IC50 [19]: 54.5 µM (active)

**Q.** Which results are given for `CC/N=c1\sc(C(=O)OC)cc(=O)n1CC`?
**A.** EC50 [3]: > 91.2 µM (inactive); EC50 [4]: > 91.2 µM (inactive)

— ChEMBL document CHEMBL1201862, “PubChem BioAssay data set” (2004)
